For 18 molecules, pest or weed control and chromatographic logP results are on record in patent publication US9241487B2, “Pyrimidine derivatives and use thereof as pesticides” (BAYER INTELLECTUAL PROPERTY GMBH, priority 2010, dated 2016).

One data set deals with Sphaerotheca fuliginea. Nature of the data set: Sphaerotheca test (cucumber)/protective. To be noted: Podosphaera fuliginea, 168 h, cucumber plants, protective spray, evaluation 7 days after inoculation, read-out: Efficacy (%). The format is in vivo. As to the method: Sphaerotheca Test (Cucumber)/Protective
(§1) Solvent: 49 parts by weight of N,N-dimethylformamide
(§2) Emulsifier: 1 part by weight of alkylaryl polyglycol ether
To produce a suitable preparation of active compound, 1 part by weight of active compound is mixed with the stated amounts of solvent and emulsifier, and the concentrate is diluted with water to the desired concentration. To test for protective activity, young cucumber plants are sprayed with the preparation of active compound at the stated application rate. 1 day after the treatment, the plants are inoculated with a spore suspension of Sphaerotheca fuliginea. The plants are then placed in a greenhouse at 70% relative air humidity and a temperature of 23° C. Evaluation follows 7 days after the inoculation. 0% means an efficacy which corresponds to that of the control, whereas an efficacy of 100% means that no infection is observed. In this test, the following compounds according to the invention show, at an active compound concentration of 500 ppm, an efficacy of 70% or more: […]

The subject of another data set is Alternaria solani. Kind of data set: Alternaria test (tomato)/protective. The format is in vivo. To be noted: 168 h, tomato plants, protective spray, evaluation 7 days after inoculation, read-out: Efficacy (%). The protocol: Alternaria Test (Tomato)/Protective
as §1, §2
To produce a suitable preparation of active compound, 1 part by weight of active compound is mixed with the stated amounts of solvent and emulsifier, and the concentrate is diluted with water to the desired concentration. To test for protective activity, young tomato plants are sprayed with the preparation of active compound at the stated application rate. 1 day after the treatment, the plants are inoculated with a spore suspension of Alternaria solani and then remain at 100% rd. humidity and 22° C. for 24 h. The plants then remain at 96% rd. atmospheric humidity and a temperature of 20° C. Evaluation is carried out 7 days after the inoculation. 0% means an efficacy which corresponds to that of the control, whereas an efficacy of 100% means that no infection is observed.
(§3) In this test, the following compounds according to the invention show, at an active compound concentration of 500 ppm, an efficacy of 70% or more: […]

The subject of the next data set is Leptosphaeria nodorum. Nature of the data set: Leptosphaeria nodorum test (wheat)/protective. The format is in vivo. To be noted: Parastagonospora nodorum, wheat plants, protective spray, evaluation 7-9 days after inoculation, read-out: Efficacy (%). The protocol:
Leptosphaeria nodorum Test (Wheat)/Protective
as §1, §2
To produce a suitable preparation of active compound, 1 part by weight of active compound is mixed with the stated amounts of solvent and emulsifier, and the concentrate is diluted with water to the desired concentration. To test for protective activity, young wheat plants are sprayed with the preparation of active compound at the stated application rate. 1 day after the treatment, the plants are inoculated with an aqueous spore suspension of Leptosphaeria nodorum and then remain at 100% relative atmospheric humidity and 22° C. for 48 h. The plants are then placed in a greenhouse at 90% relative atmospheric humidity and a temperature of 22° C. Evaluation is carried out 7-9 days after the inoculation. 0% means an efficacy which corresponds to that of the control, whereas an efficacy of 100% means that no infection is observed. In this test, the following compounds according to the invention show, at an active compound concentration of 500 ppm, an efficacy of 70% or more: […]

In data set [1] the test system is Blumeria graminis fsp. hordei. Nature of the data set: Blumeria graminis test (barley)/protective. To be noted: 168 h, protective spray, evaluation 7 days after inoculation, read-out: Efficacy (%). In kind it is in vivo. As to the method: Blumeria graminis Test (Barley)/Protective
(§4) Solvent: 49 parts by weight of N,N-dimethylacetamide
as §2
To produce a suitable preparation of active compound, 1 part by weight of active compound is mixed with the stated amounts of solvent and emulsifier, and the concentrate is diluted with water to the desired concentration. To test for protective activity, young plants are sprayed with the preparation of active compound at the stated application rate. After the spray coating has dried on, the plants are dusted with spores of Blumeria graminis fsp. hordei. The plants are placed in a greenhouse at a temperature of about 18° C. and a relative air humidity of about 80% to promote the development of mildew pustules. Evaluation follows 7 days after the inoculation. 0% means an efficacy which corresponds to that of the control, whereas an efficacy of 100% means that no infection is observed.
as §3

For another data set, the system named is Septoria tritici. Nature of the data set: Septoria tritici test (wheat)/protective. The format is in vivo. The settings on record: Zymoseptoria tritici, 504 h, protective spray, evaluation 21 days after inoculation, read-out: Efficacy (%). As to the method:
Septoria tritici Test (Wheat)/Protective
as §4, §2
(§5) To produce a suitable preparation of active compound, 1 part by weight of active compound is mixed with the stated amounts of solvent and emulsifier, and the concentrate is diluted with water to the desired concentration. To test for protective activity, young plants are sprayed with the preparation of active compound at the stated application rate. After the spray coating has dried on, the plants are sprayed with a spore suspension of Septoria tritici. The plants remain in an incubation cabin at 20° C. and 100% relative atmospheric humidity for 48 hours. Thereafter, the plants are placed under a translucent hood at 15° C. and 100% relative air humidity for a further 60 hours. The plants are placed in a greenhouse at a temperature of about 15° C. and a relative atmospheric humidity of about 80%. Evaluation follows 21 days after the inoculation. 0% means an efficacy which corresponds to that of the control, whereas an efficacy of 100% means that no infection is observed.
as §3

Another data set relates to Venturia inaequalis. Kind of data set: Venturia test (apple)/protective. The settings on record: 240 h, protective spray, evaluation 10 days after inoculation, read-out: Efficacy (%). In kind it is in vivo. The protocol:
Venturia Test (Apple)/Protective
(§6) Solvents: 24.5 parts by weight of acetone
(§7) • 24.5 parts by weight of dimethylacetamide Emulsifier: 1 part by weight of alkylaryl polyglycol ether
(§8) To produce a suitable preparation of active compound, 1 part by weight of active compound is mixed with the stated amounts of solvent and emulsifier, and the concentrate is diluted with water to the desired concentration. To test for protective activity, young plants are sprayed with the preparation of active compound at the stated application rate. After the spray coating has dried on, the plants are inoculated with an aqueous conidia suspension of the apple scab pathogen Venturia inaequalis and then remain in an incubation cabin at approx. 20° C. and 100% relative air humidity for 1 day. The plants are then placed in the greenhouse at about 21° C. and a relative atmospheric humidity of about 90%. Evaluation follows 10 days after the inoculation. 0% means an efficacy which corresponds to that of the control, whereas an efficacy of 100% means that no infection is observed.
(§9) In this test, the following compounds according to the invention show, at an active compound concentration of 100 ppm, an efficacy of 70% or more: […]

The test system of another data set is Uromyces appendiculatus. Nature of the data set: Uromyces test (bean)/protective. In kind it is in vivo. To be noted: 240 h, protective spray, evaluation 10 days after inoculation, read-out: Efficacy (%). As to the method: Uromyces Test (Bean)/Protective
as §6, §7
as §8, with “spore” for “conidia”, “bean rust” for “apple scab”, “Uromyces appendiculatus” for “Venturia inaequalis”, “about” for “approx.”, “atmospheric” for “air”
as §9

The test system of a further data set is Puccinia triticina. Nature of the data set: Puccinia triticina test (wheat)/protective. In kind it is in vivo. To be noted: 192 h, protective spray, evaluation 8 days after inoculation, read-out: Efficacy (%). The protocol:
Puccinia triticina Test (Wheat)/Protective
as §4, §2
as §5, with “sprayed with spores with a spore” for “sprayed with a spore”, “suspension of Puccinia triticina. The plants” for “suspension of Septoria tritici. The plants”, “48 hours. The plants” for “48 hours. Thereafter, the plants are placed under a translucent hood at 15° C. and 100% relative air humidity for a further 60 hours. The plants”, “of about 20° C. and” for “of about 15° C. and”, “Evaluation follows 8 days after” for “Evaluation follows 21 days after”
as §3

Data set [2] can be described thus: log P by HPLC on reversed-phase columns (C 18), EEC directive 79/831 Annex V.A8. In kind it is physicochemical. To be noted: reversed-phase HPLC columns (C 18); method [a]: LC-MS, acidic range pH 2.7, 0.1% aqueous formic acid/acetonitrile, gradient 10% to 95% acetonitrile. The protocol: The log P values were measured according to EEC directive 79/831 Annex V.A8 by HPLC (High Performance Liquid Chromatography) on reversed-phase columns (C 18), using the methods below: [a] The LC-MS determination in the acidic range is carried out at pH 2.7 with 0.1% aqueous formic acid and acetonitrile (contains 0.1% formic acid) as mobile phases; linear gradient from 10% acetonitrile to 95% acetonitrile.

As for `CC(C)(C)C(O)(CSc1ccc(SC(F)(F)F)cc1)c1cncnc1` (stereo not drawn) [Compound 4], the pest or weed control at 500 ppm was 91% in the data set on Sphaerotheca fuliginea; 95% in the data set with Alternaria solani; 70% in the data set with Leptosphaeria nodorum; 89% in data set [1]; 100% with Septoria tritici.
Turning to `CC(C)(C)C(O)(CCc1ccc(SC(F)(F)F)cc1)c1cncnc1` (stereo not drawn) [Compound 7], the results for the pest or weed control at 500 ppm in the data set on Sphaerotheca fuliginea, with Alternaria solani and in the data set on Leptosphaeria nodorum were 95%, 94% and 95%, respectively.
`OC(c1cncnc1)(c1ccc(F)cc1F)C1(Oc2ccc(SC(F)(F)F)cc2)CC1` (stereo not drawn) [Compound 8]: the figures for the pest or weed control at 500 ppm with Sphaerotheca fuliginea and in the data set on Alternaria solani were 100% and 80%, respectively.
In the case of `CC(C)(Oc1ccc(OC(F)(F)F)cc1)C(C)(O)c1cncnc1` (stereo not drawn) [Compound 9], the pest or weed control at 500 ppm in the data set with Sphaerotheca fuliginea amounted to 95%; with Alternaria solani, 100%; with Leptosphaeria nodorum it was 100%; in [1], 100%; in the data set on Septoria tritici, 90%; in the data set with Puccinia triticina it was 100%. The pest or weed control at 100 ppm was found to be 94% in the data set on Venturia inaequalis and 100% with Uromyces appendiculatus.
`CC(C)(Sc1ccc(OC(F)(F)F)cc1)C(C)(O)c1cncnc1` (stereo not drawn) [Compound 10]: the pest or weed control at 500 ppm with Alternaria solani and in the data set with Leptosphaeria nodorum was 100% in each case.
Regarding `CC(C)(Sc1ccc(SC(F)(F)F)cc1)C(C)(O)c1cncnc1` (stereo not drawn) [Compound 11], the pest or weed control at 500 ppm in the data set on Alternaria solani came to 100%; in the data set with Leptosphaeria nodorum, 95%.
Regarding `CC#CC(O)(c1cncnc1)C(C)(C)Sc1ccc(OC(F)(F)F)cc1` (stereo not drawn) [Compound 13], the pest or weed control at 500 ppm in the data set on Sphaerotheca fuliginea stood at 76%; in the data set on Alternaria solani, 100%; in the data set with Leptosphaeria nodorum it was 95%.
For `CC#CC(O)(c1cncnc1)C(C)(C)Oc1ccc(OC(F)(F)F)cc1` (stereo not drawn) [Compound 14], the pest or weed control at 500 ppm is 95% in the data set with Sphaerotheca fuliginea; 94% in the data set on Alternaria solani; 100% with Leptosphaeria nodorum; 100% in data set [1]; 90% with Septoria tritici; 89% with Puccinia triticina.
For the molecule `CC#CC(O)(c1cncnc1)C(C)(C)Sc1ccc(SC(F)(F)F)cc1` (stereo not drawn) [Compound 15], the pest or weed control at 500 ppm in the data set with Sphaerotheca fuliginea was 88%; in the data set on Alternaria solani, 94%; with Leptosphaeria nodorum it was 95%.
With `C=CCC(O)(c1cncnc1)C(C)(C)Sc1ccc(SC(F)(F)F)cc1` (stereo not drawn) [Compound 16], the pest or weed control at 500 ppm in the data set on Alternaria solani was found to be 100%; with Leptosphaeria nodorum, 70%.
In the case of `OC(COc1ccc(OC(F)(F)F)cc1)(c1cncnc1)C1(Cl)CC1` (stereo not drawn) [Compound 20], the pest or weed control at 500 ppm with Sphaerotheca fuliginea turned out to be 75%; with Alternaria solani, 100%; in the data set with Leptosphaeria nodorum it was 95%. In addition, the values for the pest or weed control at 100 ppm with Venturia inaequalis and in the data set on Uromyces appendiculatus were 100% and 98%, respectively.
As to `OC(COc1ccc(SC(F)(F)F)cc1)(c1cncnc1)C1(Cl)CC1` (stereo not drawn) [Compound 21], the pest or weed control at 500 ppm in the data set with Sphaerotheca fuliginea was determined as 100%; in the data set on Alternaria solani, 95%.
Turning to `CC(C)(Oc1cccc(OC(F)(F)F)c1)C(C)(O)c1cncnc1` (stereo not drawn) [Compound 22], the pest or weed control at 500 ppm worked out at 95% in the data set with Sphaerotheca fuliginea, 100% with Alternaria solani and 100% in the data set with Leptosphaeria nodorum. Further, the pest or weed control at 100 ppm with Venturia inaequalis amounted to 94%.
Take `CC#CC(O)(c1cncnc1)C(C)(C)Oc1cccc(OC(F)(F)F)c1` (stereo not drawn) [Compound 23]: the pest or weed control at 500 ppm in the data set with Sphaerotheca fuliginea was determined as 88%; in the data set on Alternaria solani, 75%; with Leptosphaeria nodorum it was 70%.
Consider `CC(C)C(O)(c1cncnc1)C(C)(C)Oc1cccc(OC(F)(F)F)c1` (stereo not drawn) [Compound 24], for which the pest or weed control at 500 ppm with Sphaerotheca fuliginea was found to be 83%; in the data set on Alternaria solani, 95%; in the data set with Leptosphaeria nodorum it was 80%.
As to `CC(C)(Oc1ccccc1OC(F)(F)F)C(C)(O)c1cncnc1` (stereo not drawn) [Compound 25], the pest or weed control at 500 ppm in the data set on Alternaria solani was 90%.
`CC(C)C(O)(c1cncnc1)C(C)(C)Oc1ccccc1OC(F)(F)F` (stereo not drawn) [Compound 27]: the pest or weed control at 500 ppm with Sphaerotheca fuliginea was 88%.
As to `Cc1cc(OCC(O)(c2cncnc2)C(C)(C)C)ccc1SC(F)(F)F` (stereo not drawn) [Compound 32], in data set [2], the chromatographic logP – broadly, a lipophilicity value derived from retention on a column – came out at 3.04. The pest or weed control at 500 ppm with Sphaerotheca fuliginea came to 95%.
